Source: patent US10669263B2, “Substituted benzimidazole derivative as a modulator of TNF activity” (UCB Biopharma SRL, priority 2016, dated 2020)
Several values for one entry are separate records, joined by “and”; a condition that tells them apart may be missing. Equal entries are not always repeated.

Columns and labels:
[1] = molecular target: T1, TNFα (Homo sapiens, UniProt P01375); test: Reporter gene assay (HEK-293 bioassay): inhibition of TNFα-induced NF-κB activation in HEK-Blue CD40L cells; assay type: cell-based; settings: 0.5 ng/mL TNFα, 60 minutes preincubation, 18 h incubation, read-out: IC50 value, inhibition of TNFα-induced NF-κB activation (SEAP reporter)
T1 sequence (P01375 77-233 limits assumed): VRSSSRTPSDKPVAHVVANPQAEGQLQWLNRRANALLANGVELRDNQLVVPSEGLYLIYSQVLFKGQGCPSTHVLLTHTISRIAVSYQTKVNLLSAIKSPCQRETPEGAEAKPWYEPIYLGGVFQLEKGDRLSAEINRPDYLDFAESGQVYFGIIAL
Source text: The compounds in accordance with the present invention potently neutralise the activity of TNFα in a commercially available HEK-293 derived reporter cell line known as HEK-Blue™ CD40L. This is a stable HEK-293 transfected cell line expressing SEAP (secreted embryonic alkaline phosphatase) under the control of the IFNβ minimal promoter fused to five NF-κB binding sites. Secretion of SEAP by these cells is stimulated in a concentration-dependent manner by TNFα.
Inhibition of TNFα-induced NF-κB Activation
Stimulation of HEK-293 cells by TNFα leads to activation of the NF-κB pathway. The reporter cell line used to determine TNFα activity was purchased from InvivoGen. HEK-Blue™ CD40L is a stable HEK-293 transfected cell line expressing SEAP (secreted embryonic alkaline phosphatase) under the control of the IFNβ minimal promoter fused to five NF-κB binding sites. Secretion of SEAP by these cells is stimulated in a dose-dependent manner by TNFα, with an EC50 of 0.5 ng/mL for human TNFα. […] SEAP activity was determined in the supernatant using a colorimetric substrate, e.g. QUANTI-Blue™ or HEK-Blue™ Detection media (InvivoGen). Percentage inhibitions for compound dilutions were calculated between a DMSO control and maximum inhibition (by excess control compound) and an IC50 value calculated using XLfit™ (4 parameter logistic model) in ActivityBase.

[2] = molecular target: T1, TNFα; test: Fluorescence polarisation assay: inhibition of binding of fluorescence conjugate to TNFα; settings: 10 nM TNFα, 10 nM fluorescence conjugate, 60 minutes pre-incubation, then 20 hours at ambient temperature
Experimental: Fluorescence Polarisation Assay
Inhibition of Binding of Fluorescence Conjugate to TNFα
Compounds were tested at 10 concentrations starting from 25 μM in a final assay concentration of 5% DMSO, by pre-incubation with TNFα for 60 minutes at ambient temperature in 20 mM Tris, 150 mM NaCl, 0.05% Tween 20, before addition of the fluorescence conjugate and a further incubation for 20 hours at ambient temperature. The final concentrations of TNFα and the fluorescence conjugate were 10 nM and 10 nM respectively in a total assay volume of 25 μL. Plates were read on a plate reader capable of detecting fluorescence polarisation (e.g. an Analyst HT plate reader; or an Envision plate reader). An IC50 value was calculated using XLfit™ (4 parameter logistic model) in ActivityBase.

- IC50 [1]: < 50 nM and 0.5 to 50 nM
- IC50 [2]: < 20 nM and 0.1 to 20 nM
Structure (SMILES): Cc1nc2ccc(-c3cnc(C(C)(C)O)nc3)cc2n1Cc1c(F)cccc1OC(F)F [Example 1, 2-(5-{1-[2-(Difluoromethoxy)-6-fluorobenzyl]-2-methyl-1H-benzimidazol-6-yl}-pyrimidin-2-yl)propan-2-ol]
